In patent US6521751B1, “Recombinant nucleic acid sequences and methods for determining both genotoxicity and mutagenicity of a sample and the kinetics of the genotoxicity” (Vlaamse Instelling voor Technologisch Onderzoek (VITO), priority 1998, dated 2003):
“And” between values parts separate entries of the source, which are not always exact repeats. Equal values may be shown once. Read-outs that look alike come from different tables or passages of the source.

Legend:
[1] = test system: S. typhimurium; conditions: cited from earlier work
[2] = test system: TA 98 and TA104 strains containing pMOL1067 or pMOL1068
[3] = test system: E. coli (sfiA-lacZ); conditions: cited from earlier work
[4] = test system: S. typhimurium TA104 containing pMOL1067
[5] = test system: S. typhimurium TA104 containing pMOL1069
[6] = test system: S. typhimurium TA98 containing pMOL1068
[7] = test system: S. typhimurium TA104 containing pMOL1068
[8] = test system: S. typhimurium TA104 containing pMOL890
[9] = test system: S. typhimurium TA98 containing pMOL1067
[10] = test system: S. typhimurium TA104 containing pMOL1066
[11] = test system: S. typhimurium TA98 containing pMOL890
[12] = test system: S. typhimurium TA104* containing pMOL890
[13] = test system: S. typhimurium TA98* containing pMOL890
[14] = test system: S. typhimurium TA100* containing pMOL890
[15] = test system: novel biosensor systems in E. coli and in S. typhimurium strains; experiment: Subject SOS promoter-lux systems (general statements); conditions: for result in the novel systems according to the invention: agents known to give false negative results in the SOS chromotest and the Ames test
[16] = test system: TA98 and TA104 strains containing pMOL890, pMOL1067 or pMOL1068; experiment: Test with the TA98 and TA104 strains containing pMOL890, pMOL1067 or pMOL1068
[17] = test system: TA104 (pMOL890); conditions: M9 medium saturated with 0.1% of the PAH, degrading strain, samples every 3 days
[18] = TA 98 and TA104 strains containing pMOL1067 or pMOL1068
[19] = SOS chromotest, literature values

CN(Cc1cnc2nc(N)nc(N)c2n1)c1ccc(C(=O)N[C@@H](CCC(=O)O)C(=O)O)cc1 [Methotrexate]
AMES (result) ([1]; Ames test, Table 3): pos
OUTCOME (genotoxicity, final outcome) [2, 18]: pos
SOS (result) ([3]; SOS chromotest, Table 3): pos

c1ccc2cc3ccccc3cc2c1 [Anthracene]
AMES (result) [1]: neg
OUTCOME (genotoxicity, final outcome) [2, 18]: neg
SOS (result) ([3]; SOS chromotest, Table 3): neg

4-nitroquinoline-N-oxyde [4-NQO]
OUTCOME (genotoxicity, final outcome) [2]: pos
MINIMAL DETECTED CONCENTRATION (MDC) [3]: 0.006 nmol/assay
SOS (result) [3]: pos

COc1ccc2nc3cc(Cl)ccc3c(NCCCNCCCl)c2c1 [ICR191]
MINIMAL DETECTED CONCENTRATION (MDC) ([4]; Salmonella typhimurium): 0.55 nmol/assay
MINIMAL DETECTED CONCENTRATION (MDC) ([5]; Salmonella typhimurium): 1.1 nmol/assay
AMES (result) [1]: pos
MINIMAL DETECTED CONCENTRATION (MDC) [1]: pos
MINIMAL DETECTED CONCENTRATION (MDC) ([6]; Salmonella typhimurium): 0.14 nmol/assay
MINIMAL DETECTED CONCENTRATION (MDC) ([7]; Salmonella typhimurium): 0.55 nmol/assay
MINIMAL DETECTED CONCENTRATION (MDC) ([8]; Salmonella typhimurium): 0.14 nmol/assay
MINIMAL DETECTED CONCENTRATION (MDC) ([9]; Salmonella typhimurium): 0.28 nmol/assay
MINIMAL DETECTED CONCENTRATION (MDC) ([10]; Salmonella typhimurium): 1.1 nmol/assay
OUTCOME (genotoxicity, final outcome) [2]: pos
MINIMAL DETECTED CONCENTRATION (MDC) ([11]; Salmonella typhimurium): 0.14 nmol/assay
MINIMAL DETECTED CONCENTRATION (MDC) [3]: 0.13 nmol/assay
SOS (result) [3]: pos

[Cl][Cd][Cl] [CdCl2]
MINIMAL DETECTED CONCENTRATION (MDC) [4]: neg
MINIMAL DETECTED CONCENTRATION (MDC) [5]: neg
AMES (result) [1]: neg
MINIMAL DETECTED CONCENTRATION (MDC) [1]: neg
MINIMAL DETECTED CONCENTRATION (MDC) [6]: neg
MINIMAL DETECTED CONCENTRATION (MDC) [7]: neg
MINIMAL DETECTED CONCENTRATION (MDC) [8]: neg
MINIMAL DETECTED CONCENTRATION (MDC) [9]: neg
MINIMAL DETECTED CONCENTRATION (MDC) [10]: neg
OUTCOME (genotoxicity, final outcome) [2]: neg
MINIMAL DETECTED CONCENTRATION (MDC) [11]: neg
MINIMAL DETECTED CONCENTRATION (MDC) [3]: neg
SOS (result) [3]: neg

c1ccc2c(c1)cc1ccc3cccc4ccc2c1c34 [BαP, benzo-α-pyrene]
MINIMAL DETECTED CONCENTRATION (MDC) ([4]; TA104 pMOL1067): 0.079 nmol/assay
MINIMAL DETECTED CONCENTRATION (MDC) ([5]; TA104 pMOL1069): 0.16 nmol/assay
Number of His^+ revertants ([12]; BαP 50 mmol + S9): 82 and 85
Number of His^+ revertants ([12]; BαP 50 mmol − S9): 29 and 27
Number of His^+ revertants ([12]; BαP 200 mmol + S9): 87
Number of His^+ revertants ([12]; BαP 200 mmol − S9): 26 and 32
Number of His^+ revertants ([12]; BαP 600 mmol + S9): 57 and 69
Number of His^+ revertants ([12]; BαP 600 mmol − S9): 21 and 19
MINIMAL DETECTED CONCENTRATION (MDC) ([6]; TA98 pMOL1068): 0.16 nmol/assay
MINIMAL DETECTED CONCENTRATION (MDC) ([7]; TA104 pMOL1068): 0.16 nmol/assay
Number of His^+ revertants ([13]; BαP 10 mmol + S9): 24
Number of His^+ revertants ([13]; BαP 50 mmol − S9): 0
Number of His^+ revertants ([13]; BαP 200 mmol + S9): 49 and 50
Number of His^+ revertants ([13]; BαP 200 mmol − S9): 0
Number of His^+ revertants ([13]; BαP 600 mmol + S9): 29 and 33
Number of His^+ revertants ([13]; BαP 600 mmol − S9): 0
MINIMAL DETECTED CONCENTRATION (MDC) ([8]; TA104 pMOL890): 0.32 nmol/assay
MINIMAL DETECTED CONCENTRATION (MDC) ([9]; TA98 pMOL1067): 0.16 nmol/assay
Number of His^+ revertants ([14]; BαP 10 mmol + S9): 67 and 80
Number of His^+ revertants ([14]; BαP 50 mmol + S9): 64 and 54
Number of His^+ revertants ([14]; BαP 50 mmol − S9): 15 and 11
Number of His^+ revertants ([14]; BαP 200 mmol + S9): 59 and 58
Number of His^+ revertants ([14]; BαP 600 mmol + S9): 74 and 73
Number of His^+ revertants ([14]; BαP 600 mmol − S9): 6 and 3
MINIMAL DETECTED CONCENTRATION (MDC) ([10]; TA104 pMOL1066): 0.16 nmol/assay
OUTCOME (genotoxicity, final outcome) [2, 18]: pos
MINIMAL DETECTED CONCENTRATION (MDC) ([11]; TA98 pMOL890): 1.59 nmol/assay
SOS (result) ([3]; SOS chromotest, Table 3): pos
MINIMAL DETECTED CONCENTRATION (MDC) [3, 19]: 0.7 nmol/assay

CO[C@@]12[C@H](COC(N)=O)C3=C(C(=O)C(C)=C(N)C3=O)N1C[C@@H]1N[C@@H]12 [Mitomycin C]
level that can be detected ([15]; subject systems): 7 ng/mL

CCOS(C)(=O)=O [Ethylmethanesulphonate]
AMES (result) [1]: pos
OUTCOME (genotoxicity, final outcome) [2]: pos
SOS (result) [3]: pos

OO [H2O2, hydrogen peroxide]
MINIMAL DETECTED CONCENTRATION (MDC) ([4]; TA104 pMOL1067): 11.8 nmol/assay
MINIMAL DETECTED CONCENTRATION (MDC) ([5]; TA104 pMOL1069): 5.9 nmol/assay
AMES (result) [1]: neg
MINIMAL DETECTED CONCENTRATION (MDC) [1]: neg
result in the Ames test [1]: False-negative
MINIMAL DETECTED CONCENTRATION (MDC) ([6]; TA98 pMOL1068): 1.5 nmol/assay
MINIMAL DETECTED CONCENTRATION (MDC) ([7]; TA104 pMOL1068): 11.8 nmol/assay
result in the test (genotoxicity) [16]: positive
result in the novel systems according to the invention [15]: positive
MINIMAL DETECTED CONCENTRATION (MDC) ([8]; TA104 pMOL890): 3.8 nmol/assay
MINIMAL DETECTED CONCENTRATION (MDC) ([9]; TA98 pMOL1067): 1.5 nmol/assay
MINIMAL DETECTED CONCENTRATION (MDC) ([10]; TA104 pMOL1066): 11.8 nmol/assay
OUTCOME (genotoxicity, final outcome) [2, 18]: pos
MINIMAL DETECTED CONCENTRATION (MDC) ([11]; TA98 pMOL890): 8.5 nmol/assay
SOS (result) ([3]; SOS chromotest, Table 3): pos
MINIMAL DETECTED CONCENTRATION (MDC) [3, 19]: 23 nmol/assay

CCn1cc(C(=O)O)c(=O)c2ccc(C)nc21 [Nalidixic acid]
AMES (result) [1]: neg
result in the Ames test [1]: False-negative
result in the test (genotoxicity) [16]: positive
result in the novel systems according to the invention [15]: positive
OUTCOME (genotoxicity, final outcome) [2, 18]: pos

CNC(=O)Oc1cccc2ccccc12 [Carbaryl]
SOS (result) [3]: pos

O=P1(N(CCCl)CCCl)NCCCO1 (centres unmarked) [Cyclophosphamide]
AMES (result) [1]: pos
result in the test (genotoxicity) [16]: negative
OUTCOME (genotoxicity, final outcome) [2]: neg
SOS (result) [3]: neg

c1ccc2c(c1)Cc1ccccc1-2 [fluorene]
genotoxicity during bacterial degradation of the PAH [17]: no significant increase in genotoxicity

[N-]=[N+]=[N-] [Sodiumazide]
AMES (result) [1]: pos
result in the test (genotoxicity) [16]: positive
result in the novel systems according to the invention [15]: positive
OUTCOME (genotoxicity, final outcome) [2, 18]: pos
SOS (result) ([3]; SOS chromotest, Table 3): neg
result in the SOS chromotest ([3]; text b126): negative
